For the assay, the target named is T1, δ^1-pyrroline-5-carboxylate reductase (P5C reductase) (Arabidopsis thaliana, UniProt P54904).
T1 sequence (P54904 1-276): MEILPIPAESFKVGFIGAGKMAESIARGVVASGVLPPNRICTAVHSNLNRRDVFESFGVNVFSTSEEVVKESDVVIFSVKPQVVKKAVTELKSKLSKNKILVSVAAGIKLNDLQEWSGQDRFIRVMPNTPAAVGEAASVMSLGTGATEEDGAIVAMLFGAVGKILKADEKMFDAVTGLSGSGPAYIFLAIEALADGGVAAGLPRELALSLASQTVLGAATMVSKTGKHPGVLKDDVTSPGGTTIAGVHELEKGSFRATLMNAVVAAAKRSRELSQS
Nature of the assay: P5C-dependent NADH oxidation, absorbance at […] nm. The format is biochemical.
The term IC50 denotes the concentration that gives 50% inhibition. The low end stands for inhibition by little substance, the high end for a need for much substance. Take `O=P(O)(O)[C@@H]1CCCN1` [(R)-1, Pyrrolidin-2-ylphosphonic Acid]: the IC50 was determined as 24 ± 4 mM. The result for `O=P(O)(O)[C@@H]1CCCON1` [(R)-6, (R)-(−)-1,2-oxazinan-3-ylphosphonic acid] reads 45 ± 19 mM; that for `O=P(O)(O)[C@H]1CCCN1` [(S)-1, Pyrrolidin-2-ylphosphonic Acid], 21 ± 2 mM.

For the compound `O=C(O)[C@@H]1CCCN1` [proline], the IC50 was 84 ± 3 mM. This IC50 is about 4-fold higher than that of the compound before.

Source of the values: paper PMC6641291 (ACS Omega, 2018).
